Experimental data published in ChEMBL document CHEMBL5550163, “A novel approach to exploit Small-Molecule glucagon-like Peptide-1 receptor agonists with high potency” (Bioorg Med Chem, 2024).
Calls of active or inactive are those of the source. The rule behind the calls is not given here.

Assays:
[1] = target: T1, Glucagon-like peptide 1 receptor (Homo sapiens, UniProt P43220); test: Agonist activity human GLP-1R stably expressed in HEK293 cells assessed as increase in intracellular cAMP level incubated for 30 mins by multiplate reader analysis; assay type: functional, cell-based
[2] = target: T1, Glucagon-like peptide 1 receptor; test: Agonist activity at GLP-1R (unknown origin) transfected in HEK293 cells assessed as beta-arrestin2 recruitment incubated for 5 mins by Envision multiplate reader analysis; assay type: functional, cell-based
[3] = target: T1, Glucagon-like peptide 1 receptor; test: Agonist activity at GLP-1R (unknown origin) transfected in HEK293 cells assessed as beta-arrestin1 recruitment incubated for 5 mins by Envision multiplate reader analysis; assay type: functional, cell-based
Mus musculus [4] = test: Antidiabetic activity in hGLP1R-knock in mouse model assessed as reduction in blood glucose AUC (0 to 120 mins) at 3 mg/kg, ip pretreated with compound for 15 mins followed glucose addition and measured after 120 mins by OGTT analysis; assay type: functional; design: scale not given: the % may be the effect or the level left; conditions: time 135 min, 2.25 h
[5] = target: Glucagon receptor (Homo sapiens) (UniProt P47871); test: Agonist activity human GCGR stably expressed in HEK293 cells assessed as […] in intracellular cAMP level up to 100 uM incubated for 30 mins by multiplate reader analysis; assay type: functional, cell-based
Mus musculus [6] = test: Antidiabetic activity in hGLP1R-knock in mouse model assessed as reduction in blood glucose level at 3 mg/kg, ip pretreated with compound for 15 mins followed glucose addition and measured after 30 to 120 mins by OGTT analysis; assay type: functional, organism-based; conditions: time 45-135 min
Pancreatic islet = test: Induction of insulin secretion in mouse Pancreatic islet cells expressing hGLP1R at 10 nM measured for 2 hrs by HTRF analysis; assay type: functional, cell-based
[7] = target: T2, Gastric inhibitory polypeptide receptor (Homo sapiens) (UniProt P48546); test: Agonist activity human GIPR stably expressed in HEK293 cells assessed as […] in intracellular cAMP level up to 100 uM incubated for 30 mins by multiplate reader analysis; assay type: functional, cell-based
T2 sequence (whole entry): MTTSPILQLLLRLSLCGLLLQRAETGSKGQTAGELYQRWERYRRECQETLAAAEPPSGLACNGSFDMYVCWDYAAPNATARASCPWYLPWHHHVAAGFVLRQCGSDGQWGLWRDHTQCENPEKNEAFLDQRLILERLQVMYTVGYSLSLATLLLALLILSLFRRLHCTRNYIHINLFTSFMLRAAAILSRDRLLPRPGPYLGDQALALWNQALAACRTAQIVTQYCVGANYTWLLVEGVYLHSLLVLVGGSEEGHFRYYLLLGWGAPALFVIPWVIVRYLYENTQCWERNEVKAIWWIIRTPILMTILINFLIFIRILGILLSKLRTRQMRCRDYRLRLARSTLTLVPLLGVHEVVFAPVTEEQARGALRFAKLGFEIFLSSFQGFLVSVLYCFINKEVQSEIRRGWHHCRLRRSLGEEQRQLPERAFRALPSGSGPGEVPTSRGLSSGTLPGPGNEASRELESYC

[8] = target: T3, Glucagon-like peptide 2 receptor (Homo sapiens) (UniProt O95838); test: Agonist activity human GLP-2R stably expressed in HEK293 cells assessed as […] in intracellular cAMP level up to 100 uM incubated for 30 mins by multiplate reader analysis; assay type: functional, cell-based
T3 sequence (whole entry): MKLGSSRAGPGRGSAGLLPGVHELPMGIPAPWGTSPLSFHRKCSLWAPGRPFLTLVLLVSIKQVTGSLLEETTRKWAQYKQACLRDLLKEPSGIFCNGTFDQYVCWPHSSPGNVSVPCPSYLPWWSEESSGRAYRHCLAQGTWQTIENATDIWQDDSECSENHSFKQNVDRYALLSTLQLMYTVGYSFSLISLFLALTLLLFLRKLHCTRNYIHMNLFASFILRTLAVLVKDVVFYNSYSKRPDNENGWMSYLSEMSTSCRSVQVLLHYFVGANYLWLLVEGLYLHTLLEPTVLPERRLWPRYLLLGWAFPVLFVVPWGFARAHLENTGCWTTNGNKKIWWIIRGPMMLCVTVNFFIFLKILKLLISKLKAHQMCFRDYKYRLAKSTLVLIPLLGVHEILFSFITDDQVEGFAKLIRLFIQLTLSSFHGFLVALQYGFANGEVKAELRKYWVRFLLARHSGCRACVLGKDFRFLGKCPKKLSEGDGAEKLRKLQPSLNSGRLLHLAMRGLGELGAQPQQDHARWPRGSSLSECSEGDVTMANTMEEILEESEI

Mus musculus [9] = test: Antidiabetic activity in hGLP1R-knock in mouse model assessed as reduction in blood glucose level at 3 mg/kg, ip pretreated with compound for 15 mins followed glucose addition and measured after 120 mins by OGTT analysis; assay type: functional, organism-based; conditions: time 135.0 min

T1 sequence (P43220 whole entry): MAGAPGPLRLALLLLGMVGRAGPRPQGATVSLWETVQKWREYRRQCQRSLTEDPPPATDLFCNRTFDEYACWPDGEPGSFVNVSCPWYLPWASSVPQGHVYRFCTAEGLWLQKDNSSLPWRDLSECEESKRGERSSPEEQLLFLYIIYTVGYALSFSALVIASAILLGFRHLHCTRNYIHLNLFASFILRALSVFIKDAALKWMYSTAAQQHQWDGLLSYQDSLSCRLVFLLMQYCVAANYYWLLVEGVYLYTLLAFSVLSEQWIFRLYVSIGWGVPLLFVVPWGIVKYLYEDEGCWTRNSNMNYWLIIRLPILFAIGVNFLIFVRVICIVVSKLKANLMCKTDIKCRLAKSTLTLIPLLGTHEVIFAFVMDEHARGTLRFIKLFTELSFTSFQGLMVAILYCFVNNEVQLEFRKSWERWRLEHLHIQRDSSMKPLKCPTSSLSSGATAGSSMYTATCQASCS
Chain of Glucagon receptor (Homo sapiens) (P47871 whole entry): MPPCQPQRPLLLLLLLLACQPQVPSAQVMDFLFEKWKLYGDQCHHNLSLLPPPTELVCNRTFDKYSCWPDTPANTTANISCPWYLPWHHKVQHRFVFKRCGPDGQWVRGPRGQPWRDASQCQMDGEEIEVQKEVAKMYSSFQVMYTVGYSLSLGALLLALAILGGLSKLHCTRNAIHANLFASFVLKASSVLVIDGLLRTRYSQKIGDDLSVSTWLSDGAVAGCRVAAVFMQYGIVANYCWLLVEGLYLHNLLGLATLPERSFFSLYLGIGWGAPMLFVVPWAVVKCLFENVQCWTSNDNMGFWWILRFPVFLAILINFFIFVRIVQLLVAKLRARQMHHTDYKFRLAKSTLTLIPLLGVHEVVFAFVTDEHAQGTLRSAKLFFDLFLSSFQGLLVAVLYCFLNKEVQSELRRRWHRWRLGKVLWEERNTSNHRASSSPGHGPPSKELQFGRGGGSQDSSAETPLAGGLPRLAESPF

SMILES | EC50 [1] | further results
CCc1nnc(-c2ccc3c(c2)nc(CN2CCC(c4cccc(OCc5ccc(Cl)cc5F)n4)CC2)n3C[C@@H]2CCO2)[nH]1 | 0.75 nM | 
COc1nnc(-c2ccc3c(c2)nc(CN2CCC(c4cccc(OCc5ccc(Cl)cc5F)n4)CC2)n3C[C@@H]2CCO2)[nH]1 | 0.88 nM | 
CC(C)CSc1nnc(-c2ccc3c(c2)nc(CN2CCC(c4cccc(OCc5ccc(Cl)cc5F)n4)CC2)n3C[C@@H]2CCO2)[nH]1 | 22 nM | 
NC(=O)CCCSc1nnc(-c2ccc3c(c2)nc(CN2CCC(c4cccc(OCc5ccc(Cl)cc5F)n4)CC2)n3C[C@@H]2CCO2)[nH]1 | 0.1 nM | EC50 [2]: 322 nM; EC50 [3]: 566 nM
Fc1cc(Cl)ccc1COc1cccc(C2CCN(Cc3nc4cc(-c5nnc(C(F)(F)F)[nH]5)ccc4n3C[C@@H]3CCO3)CC2)n1 | 0.46 nM | 
CN(C)c1nnc(-c2ccc3c(c2)nc(CN2CCC(c4cccc(OCc5ccc(Cl)cc5F)n4)CC2)n3C[C@@H]2CCO2)[nH]1 | 6.8 nM | 
N=C(N)CSc1nnc(-c2ccc3c(c2)nc(CN2CCC(c4cccc(OCc5ccc(Cl)cc5F)n4)CC2)n3C[C@@H]2CCO2)[nH]1 | 2.8 nM | 
OCCCSc1nnc(-c2ccc3c(c2)nc(CN2CCC(c4cccc(OCc5ccc(Cl)cc5F)n4)CC2)n3C[C@@H]2CCO2)[nH]1 | 0.48 nM | 
O=C(O)CSc1nnc(-c2ccc3c(c2)nc(CN2CCC(c4cccc(OCc5ccc(Cl)cc5F)n4)CC2)n3C[C@@H]2CCO2)[nH]1 | 1 nM | 
NC(=O)CCSc1nnc(-c2ccc3c(c2)nc(CN2CCC(c4cccc(OCc5ccc(Cl)cc5F)n4)CC2)n3C[C@@H]2CCO2)[nH]1 | 0.59 nM | 
COCCSc1nnc(-c2ccc3c(c2)nc(CN2CCC(c4cccc(OCc5ccc(Cl)cc5F)n4)CC2)n3C[C@@H]2CCO2)[nH]1 | 3.4 nM | 
N#Cc1ccc(COc2cccc(C3CCN(Cc4nc5ccc(C(=O)O)cc5n4C[C@@H]4CCO4)CC3)n2)c(F)c1 |  | Activity (Mus musculus [6]): Active; Activity (Pancreatic islet): Active; Activity (Mus musculus [9]): Active
Fc1cc(Cl)ccc1COc1cccc(C2CCN(Cc3nc4cc(-c5nnc(SCc6ncc[nH]6)[nH]5)ccc4n3C[C@@H]3CCO3)CC2)n1 | 2.5 nM | 
CC(C)Sc1nnc(-c2ccc3c(c2)nc(CN2CCC(c4cccc(OCc5ccc(Cl)cc5F)n4)CC2)n3C[C@@H]2CCO2)[nH]1 | 5.2 nM | 

Further compounds by falling EC50 [1], results first:

EC50 [1] | SMILES | further results
50 nM | Fc1cc(Cl)ccc1COc1cccc(C2CCN(Cc3nc4cc(-c5nnc(SCC6CC6)[nH]5)ccc4n3C[C@@H]3CCO3)CC2)n1 | 
8.5 nM | CSc1nnc(-c2ccc3c(c2)nc(CN2CCC(c4cccc(OCc5ccc(Cl)cc5F)n4)CC2)n3C[C@@H]2CCO2)n1C | 
4 nM | OCCCCSc1nnc(-c2ccc3c(c2)nc(CN2CCC(c4cccc(OCc5ccc(Cl)cc5F)n4)CC2)n3C[C@@H]2CCO2)[nH]1 | 
1.1 nM | CCSc1nnc(-c2ccc3c(c2)nc(CN2CCC(c4cccc(OCc5ccc(Cl)cc5F)n4)CC2)n3C[C@@H]2CCO2)[nH]1 | 
0.67 nM | CSc1nnc(-c2ccc3c(c2)nc(CN2CCC(c4cccc(OCc5ccc(Cl)cc5F)n4)CC2)n3C[C@@H]2CCO2)[nH]1 | 
0.67 nM | N#CCSc1nnc(-c2ccc3c(c2)nc(CN2CCC(c4cccc(OCc5ccc(Cl)cc5F)n4)CC2)n3C[C@@H]2CCO2)[nH]1 | 
0.66 nM | CC(=O)CSc1nnc(-c2ccc3c(c2)nc(CN2CCC(c4cccc(OCc5ccc(Cl)cc5F)n4)CC2)n3C[C@@H]2CCO2)[nH]1 | 
0.62 nM | NC(=O)CCCCSc1nnc(-c2ccc3c(c2)nc(CN2CCC(c4cccc(OCc5ccc(Cl)cc5F)n4)CC2)n3C[C@@H]2CCO2)[nH]1 | 
0.52 nM | N=C(CSc1nnc(-c2ccc3c(c2)nc(CN2CCC(c4cccc(OCc5ccc(Cl)cc5F)n4)CC2)n3C[C@@H]2CCO2)[nH]1)NO | 
0.42 nM | NCCSc1nnc(-c2ccc3c(c2)nc(CN2CCC(c4cccc(OCc5ccc(Cl)cc5F)n4)CC2)n3C[C@@H]2CCO2)[nH]1 | 
0.38 nM | O=C1NCC(CSc2nnc(-c3ccc4c(c3)nc(CN3CCC(c5cccc(OCc6ccc(Cl)cc6F)n5)CC3)n4C[C@@H]3CCO3)[nH]2)O1 (stereo partly drawn) | 
0.35 nM | NC(=O)CSc1nnc(-c2ccc3c(c2)nc(CN2CCC(c4cccc(OCc5ccc(Cl)cc5F)n4)CC2)n3C[C@@H]2CCO2)[nH]1 | 
0.11 nM | NC(=O)NCCSc1nnc(-c2ccc3c(c2)nc(CN2CCC(c4cccc(OCc5ccc(Cl)cc5F)n4)CC2)n3C[C@@H]2CCO2)[nH]1 | EC50 [2]: 349 nM; EC50 [3]: 364 nM
0.065 nM | OCCSc1nnc(-c2ccc3c(c2)nc(CN2CCC(c4cccc(OCc5ccc(Cl)cc5F)n4)CC2)n3C[C@@H]2CCO2)[nH]1 | Activity (Mus musculus [4]): 50%; Activity [5]: inactive; Activity (Mus musculus [6]): Active; Activity (Pancreatic islet): Active; EC50 [2]: 581 nM; Activity [7]: inactive; Activity [8]: inactive; EC50 [3]: 936 nM; Activity (Mus musculus [9]): Active
